Measurements published in patent US11109588B2, “Stable liquid formulations and methods of using the same” (priority 2019, dated 2021).

Test: Storage stability of liquid compositions in a sealed container, 8 weeks at 40° C., loss by HPLC
Assay type: physicochemical
Details: inert ingredients of Composition #7 of Table 3, aged 8 weeks at 40° C.

COC(=O)c1sccc1S(=O)(=O)NC(=O)Nc1nc(C)nc(OC)n1 [Thifensulfuron-methyl, thifensulfuron-methyl]
relative loss of thifensulfuron-methyl: less than 5 % w/w
